Activity calls are given as the source filed them. The calls are words filed in the database; no cut-off is given here.
Legend:
HT-22 [1] = assay: Neuroprotective activity against glutamate-induced apoptosis in mouse HT22 cells assessed as apoptotic cells at 50 uM after 10 to 12 hrs by Annexin V-alexa 488/propidium iodide staining based flow cytometry (reference value: 57%); type: functional
HT-22 [2] = assay: Neuroprotective activity against glutamate-induced cell death in mouse HT22 cells assessed as reduction in apoptotic cells at 50 uM after 10 to 12 hrs by Annexin V-alexa 488/propidium iodide staining based flow cytometry; type: functional
HT-22 [3] = assay: Neuroprotective activity against glutamate-induced cell death in mouse HT22 cells assessed as increase in cell viability […] after 24 hrs by MTT assay; type: functional, cell-based

CC(=O)N[C@@H](CS)C(=O)O [ACETYLCYSTEINE]
Activity (HT-22 [1]): 17%
Activity (HT-22 [2]): Active
Activity (HT-22 [3]): Active

— ChEMBL document CHEMBL4177681, “Protective effect of casuarinin against glutamate-induced apoptosis in HT22 cells through inhibition of oxidative stress-mediated MAPK phosphorylation” (Bioorg Med Chem Lett, 2017)
